Experimental data as given in US12692289B2, “Tumor-specific peptide antigens for ovarian cancer and uses thereof” (UNIVERSITE DE MONTREAL, priority 2019, dated 2026).
Peptide text beside a SMILES is read from it.

System: TCGA-OV cohort
Assay: TCGA-OV cohort analysis: survival and immune cell scores by aeTSA RNA expression and HLA allotype
Design: species or system human
Conditions: immune cell scores from RNA-Seq, ANOVA, p<0.05
Description: Clinical and genomic data from TCGA. Processed and normalized level 3 data with hg38 for HM27 methylation, DNA copy number variation, RNA-Seq gene expression as well as the clinical data were downloaded from the TCGA open-access database using the R package ‘TCGAbiolinks’ (31). Arm-level DNA copy number alterations were downloaded from Broad Institute TCGA Genome Data Analysis Center (doi:10.7908/C1P84B9Q).
Immune cell scores. Immune cell scores representing immune cell populations were estimated based on RNA-Seq data. For each tumor, scores were estimated as the average of log-transformed FPKM values of their marker genes as described by Danaher et al. (32).
Statistical analyses and data visualization. Analyses and figures were performed using the R v3.5.1 or Python v2.7.6. The ‘gplots’ package in R was used to generate heatmaps of TSA coding region expression in tumors. Correlation tests were done using R function ‘cor.test’ with the Spearman's method unless otherwise indicated. Tests involving comparisons of distributions were performed with ANOVA test, and pairwise comparisons between groups were performed by Wilcoxon rank sum test. Log-rank P values for survival analysis were calculated with the ‘survival’ package.

CSCC[C@H](NC(=O)[C@H](CCC(N)=O)NC(=O)[C@H](Cc1c[nH]cn1)NC(=O)[C@@H](NC(=O)[C@@H](N)CCCNC(=N)N)[C@@H](C)O)C(=O)N[C@@H](CC(N)=O)C(=O)N[C@H](C(=O)N[C@@H](Cc1ccccc1)C(=O)N[C@@H](CCC(N)=O)C(=O)N[C@@H](CCCNC(=N)N)C(=O)O)[C@@H](C)O (H-RTHQMNTFQR-OH; N-terminus and C-terminus assumed)
correlation of aeTSA expression and relevant HLA allotype with tumor infiltration by T cells and cytotoxic T cells: positive correlation
